Reference: ChEMBL document CHEMBL6114992, “Design, synthesis, biological evaluation, and mechanism of action of new pyrazines as anticancer agents in vitro and in vivo” (Bioorg Med Chem, 2025)
Activity calls are given as the source filed them. The calls are words filed in the database; no cut-off is given here.

Legend:
THP-1 = assay: Antiproliferative activity against human THP-1 cells assessed as inhibition of cell growth incubated for 72 hrs by MTT assay; format: functional, cell-based; details: THP-1, 72 h
KG-1 = assay: Antiproliferative activity against human KG-1 cells assessed as inhibition of cell growth incubated for 72 hrs by MTT assay; format: functional, cell-based; details: KG-1, 72 h
U-937 [1] = assay: Antiproliferative activity against human U-937 cells assessed as inhibition of cell growth incubated for 72 hrs by MTT assay; format: functional, cell-based; details: U-937, 72 h
SK-OV-3 = assay: Antiproliferative activity against human SK-OV-3 cells assessed as inhibition of cell growth incubated for 72 hrs by MTT assay; format: functional, cell-based; details: SK-OV-3, 72 h
[2] = Antiproliferative activity against human SK-OV-3/Taxol cells assessed as inhibition of cell growth incubated for 72 hrs by MTT assay; format: functional, cell-based; details: SK-OV-3, 72 h
U-937 [3] = assay: Induction of apoptosis in human U-937 cells assessed as viable cells at 0.5 uM incubated for 48 hrs by Annexin V-FITC/PI staining based flow cytometry (reference value: 93.30 %); format: functional; details: read-out: Activity
U-937 [4] = assay: Induction of apoptosis in human U-937 cells assessed as early apoptotic cells at 0.5 uM incubated for 48 hrs by Annexin V-FITC/PI staining based flow cytometry (reference value: 2.72 %); format: functional
U-937 [5] = assay: Induction of apoptosis in human U-937 cells assessed as late apoptotic cells at 0.5 uM incubated for 48 hrs by Annexin V-FITC/PI staining based flow cytometry (reference value: 1.96 %); format: functional
U-937 [6] = assay: Induction of apoptosis in human U-937 cells assessed as necrotic cells at 0.5 uM incubated for 48 hrs by Annexin V-FITC/PI staining based flow cytometry (reference value: 2.03 %); format: functional
U-937 [7] = assay: Induction of apoptosis in human U-937 cells assessed as viable cells at 1 uM incubated for 48 hrs by Annexin V-FITC/PI staining based flow cytometry (reference value: 93.30 %); format: functional; details: read-out: Activity
U-937 [8] = assay: Induction of apoptosis in human U-937 cells assessed as early apoptotic cells at 1 uM incubated for 48 hrs by Annexin V-FITC/PI staining based flow cytometry (reference value: 2.72 %); format: functional
U-937 [9] = assay: Induction of apoptosis in human U-937 cells assessed as late apoptotic cells at 1 uM incubated for 48 hrs by Annexin V-FITC/PI staining based flow cytometry (reference value: 1.96 %); format: functional
U-937 [10] = assay: Induction of apoptosis in human U-937 cells assessed as necrotic cells at 1 uM incubated for 48 hrs by Annexin V-FITC/PI staining based flow cytometry (reference value: 2.03 %); format: functional
U-937 [11] = assay: Induction of apoptosis in human U-937 cells assessed as viable cells at 2.5 uM incubated for 48 hrs by Annexin V-FITC/PI staining based flow cytometry (reference value: 93.30 %); format: functional; details: read-out: Activity
U-937 [12] = assay: Induction of apoptosis in human U-937 cells assessed as early apoptotic cells at 2.5 uM incubated for 48 hrs by Annexin V-FITC/PI staining based flow cytometry (reference value: 2.72 %); format: functional
U-937 [13] = assay: Induction of apoptosis in human U-937 cells assessed as late apoptotic cells at 2.5 uM incubated for 48 hrs by Annexin V-FITC/PI staining based flow cytometry (reference value: 1.96 %); format: functional
U-937 [14] = assay: Induction of apoptosis in human U-937 cells assessed as necrotic cells at 2.5 uM incubated for 48 hrs by Annexin V-FITC/PI staining based flow cytometry (reference value: 2.03 %); format: functional
U-937 [15] = assay: Induction of apoptosis in human U-937 cells assessed as change in mitochondrial membrane potential at 1 uM incubated for 48 hrs by JC-1 staining based flow cytometry (reference value: 2.20 %); format: functional
U-937 [16] = assay: Induction of apoptosis in human U-937 cells assessed as change in mitochondrial membrane potential at 2.5 uM incubated for 48 hrs by JC-1 staining based flow cytometry (reference value: 2.20 %); format: functional
U-937 [17] = assay: Induction of apoptosis in human U-937 cells assessed as change in mitochondrial membrane potential at 5 uM incubated for 48 hrs by JC-1 staining based flow cytometry (reference value: 2.20 %); format: functional
U-937 [18] = assay: Upregulation of p21 expression in human U-937 cells incubated for 48 hrs by Western blot analysis; format: functional, cell-based
U-937 [19] = assay: Downregulation of Bcl-2 expression in human U-937 cells incubated for 48 hrs by Western blot analysis; format: functional, cell-based
U-937 [20] = assay: Downregulation of Bcl-XL expression in human U-937 cells incubated for 48 hrs by Western blot analysis; format: functional, cell-based; details: dose 1-5 µM
U-937 [21] = assay: Downregulation of XIAP expression in human U-937 cells incubated for 48 hrs by Western blot analysis; format: functional, cell-based
U-937 [22] = assay: Downregulation of YAP1 expression in human U-937 cells incubated for 48 hrs by Western blot analysis; format: functional, cell-based; details: dose 1-5 µM
U-937 [23] = assay: Downregulation of c-Myc expression in human U-937 cells incubated for 48 hrs by Western blot analysis; format: functional, cell-based; details: dose 1-5 µM
[24] = target: Signal transducer and activator of transcription 3 (Homo sapiens) (UniProt P40763); assay: Inhibition of STAT3 phosphorylation in human U-937 cells at 1 to 5 uM incubated for 48 hrs by Western blot analysis; format: cell-based; details: dose 1-5 µM
Signal transducer and activator of transcription 3 (Homo sapiens), sequence (P40763 whole entry): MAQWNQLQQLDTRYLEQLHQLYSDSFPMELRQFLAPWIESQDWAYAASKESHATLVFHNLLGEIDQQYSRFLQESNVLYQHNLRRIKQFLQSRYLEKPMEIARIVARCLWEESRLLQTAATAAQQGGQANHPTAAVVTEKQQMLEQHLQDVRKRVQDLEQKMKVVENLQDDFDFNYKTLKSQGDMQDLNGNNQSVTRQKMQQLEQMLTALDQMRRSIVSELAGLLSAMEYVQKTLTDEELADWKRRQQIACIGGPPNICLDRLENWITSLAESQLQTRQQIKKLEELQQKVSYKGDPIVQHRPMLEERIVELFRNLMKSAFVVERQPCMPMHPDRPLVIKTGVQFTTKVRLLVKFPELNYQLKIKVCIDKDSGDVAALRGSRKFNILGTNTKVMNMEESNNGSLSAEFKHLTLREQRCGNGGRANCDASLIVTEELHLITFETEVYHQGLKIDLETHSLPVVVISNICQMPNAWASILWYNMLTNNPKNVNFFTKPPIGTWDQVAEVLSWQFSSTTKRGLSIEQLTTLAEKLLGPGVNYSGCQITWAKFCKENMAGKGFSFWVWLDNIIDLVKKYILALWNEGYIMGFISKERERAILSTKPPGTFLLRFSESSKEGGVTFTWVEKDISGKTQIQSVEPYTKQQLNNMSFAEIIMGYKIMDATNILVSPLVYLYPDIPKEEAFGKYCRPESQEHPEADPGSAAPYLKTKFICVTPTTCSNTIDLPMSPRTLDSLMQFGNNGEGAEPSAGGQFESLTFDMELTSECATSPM

CCc1nccnc1C(=O)/C=C/c1ccc(C#N)cc1
IC50 (THP-1): 0.64 µM | IC50 (KG-1): 3.98 µM | IC50 (U-937 [1]): 0.18 µM | IC50 (SK-OV-3): 4.71 µM | IC50 [2]: 5.39 µM | viability at 0.5 µM (U-937 [3]): 82.9% | Activity (U-937 [4]): 8.17% | Activity (U-937 [5]): 6.11% | Activity (U-937 [6]): 2.84% | viability at 1 µM (U-937 [7]): 80.3% | Activity (U-937 [8]): 10.41% | Activity (U-937 [9]): 6.74% | Activity (U-937 [10]): 2.6% | viability at 2.5 µM (U-937 [11]): 74.2% | Activity (U-937 [12]): 14.57% | Activity (U-937 [13]): 7.46% | Activity (U-937 [14]): 3.82% | Activity (U-937 [15]): 3.69% | Activity (U-937 [16]): 6.16% | Activity (U-937 [17]): 14.12% | Activity (U-937 [18]): Dose-dependent-effect | Activity (U-937 [19]): Dose-dependent-effect | Activity (U-937 [20]): Dose-dependent-effect | Activity (U-937 [21]): Dose-dependent-effect | Activity (U-937 [22]): Dose-dependent-effect | Activity (U-937 [23]): Dose-dependent-effect | inhibition [24]: Active
